23 compounds from patent US11634447B2 (priority 2012, dated 2023) can be followed below.

Molecules are shown by their SMILES. pIC50: −log10 of the molar value.

For one test, the target named is bacterial strain LF82 binding to the glycoprotein BSA-(Mannose)3. Nature of the test: Bacterial Binding Assay (BBA). To be noted: LF82/Luciferase strain binding to BSA-(Man)3 coated plates, luminescence; read-out: Bacterial Binding Assay IC50. It counts as cell-based, Escherichia coli. Put shortly: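 Inhibition of LF82/luciferase E. coli adhesion is read as luminescence after washing off unbound cells. Compound and bacteria (10^7 per well) are co-incubated 40-75 min at room temperature on wells coated with 0.5-2 μg/mL BSA-(Man)3, with BSA-only wells as background; IC50 values derived.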
For `OC[C@H]1O[C@H](C#Cc2ccc3c(c2)C2(CC(O)C(O)CO2)c2cc(C#C[C@H]4O[C@H](CO)[C@@H](O)[C@H](O)[C@@H]4O)ccc2-3)[C@@H](O)[C@@H](O)[C@@H]1O` (some centres unmarked) [Compound 197], the pIC50 was 9.08.

Staying with this test, now noted: read-out: Bacterial Binding Assay IC50, LF82/Luciferase strain binding to BSA-(Man)3 coated plates, luminescence.
Regarding `CN(C)C(=O)Cn1c2cc(C#C[C@H]3O[C@H](CO)[C@@H](O)[C@H](O)[C@@H]3O)ccc2c2ccc(C#C[C@H]3O[C@H](CO)[C@@H](O)[C@H](O)[C@@H]3O)cc21` [Compound 181, 2-[2,7-bis[2-[(2R,3S,4R,5S,6R)-3,4,5-trihydroxy-6-(hydroxymethyl)tetrahydropyran-2-yl]ethynyl]carbazol-9-yl]-N,N-dimethyl-acetamide], the pIC50 was 8.00.

Consider `O=C(c1c(C#C[C@H]2O[C@H](CO)[C@@H](O)[C@H](O)[C@@H]2O)ccc2c1C1(CCNCC1)c1cc(C#C[C@H]3O[C@H](CO)[C@@H](O)[C@H](O)[C@@H]3O)ccc1-2)C1CC1(F)F` (stereo partly drawn) [Compound 235, [2,7-bis[2-[(2R,3S,4R,5S,6R)-3,4,5-trihydroxy-6-(hydroxymethyl)tetrahydropyran-2-yl]ethynyl]spiro[fluorene-9,4piperidine]-1yl]-(2,2-difluorocyclopropyl)methanone], for which the pIC50 is 10.52.

In the case of `Cn1nccc1C(=O)c1c(C#C[C@H]2O[C@H](CO)[C@@H](O)[C@H](O)[C@@H]2O)ccc2c1C1(CCNCC1)c1cc(C#C[C@H]3O[C@H](CO)[C@@H](O)[C@H](O)[C@@H]3O)ccc1-2` [Compound 237, [2,7-bis[2-[(2R,3S,4R,5S,6R)-3,4,5-trihydroxy-6-(hydroxymethyl)tetrahydropyran-2-yl]ethynyl]spiro[fluorene-9,4piperidine]-1yl]-(2-methylpyrazol-3-yl)methanone], the pIC50 was 9.66.

On to `O=C(c1c(C#C[C@H]2O[C@H](CO)[C@@H](O)[C@H](O)[C@@H]2O)ccc2c1C1(CCNCC1)c1cc(C#C[C@H]3O[C@H](CO)[C@@H](O)[C@H](O)[C@@H]3O)ccc1-2)C1CCC1` [Compound 226, [2,7-bis[2-[(2R,3S,4R,5S,6R)-3,4,5-trihydroxy-6-(hydroxymethyl)tetrahydropyran-2-yl]ethynyl]spiro[fluorene-9,4piperidine]-1yl]-cyclobutyl-methanone], for which the pIC50 was 10.22.

Regarding `CN1CCN(C2c3cc(C#C[C@H]4O[C@H](CO)[C@@H](O)[C@H](O)[C@@H]4O)ccc3-c3ccc(C#C[C@H]4O[C@H](CO)[C@@H](O)[C@H](O)[C@@H]4O)cc32)CC1` [Compound 198, (2R,3S,4R,5S,6R)-2-(hydroxymethyl)-6-[2-[9-(4-methylpiperazin-1-yl)-7-[2-[(2R,3S,4R,5S,6R)-3,4,5-trihydroxy-6-(hydroxymethyl)tetrahydropyran-2-yl]ethynyl]-9H-fluoren-2-yl]ethynyl]tetrahydropyran-3,4,5-triol], the pIC50 is 7.62.

Turning to `COCCc1cc(C#C[C@H]2O[C@H](CO)[C@@H](O)[C@H](O)[C@@H]2O)ccc1C#C[C@H]1O[C@H](CO)[C@@H](O)[C@H](O)[C@@H]1O` [Compound 74], the pIC50 was 8.09.

On to `OC[C@H]1O[C@H](C#Cc2cc(F)c(C#C[C@H]3O[C@H](CO)[C@@H](O)[C@H](O)[C@@H]3O)c(F)c2)[C@@H](O)[C@@H](O)[C@@H]1O` [Compound 93, (2R,3S,4R,5S,6R)-2-[2-[3,5-difluoro-4-[2-[(2R,3S,4R,5S,6R)-3,4,5-trihydroxy-6-(hydroxymethyl)tetrahydropyran-2-yl]ethynyl]phenyl]ethynyl]-6-(hydroxymethyl)tetrahydropyran-3,4,5-triol], for which the pIC50 was 7.06.

For `Cc1cc(C#C[C@H]2O[C@H](CO)[C@@H](O)[C@H](O)[C@@H]2O)ccc1[C@H]1O[C@H](CO)[C@@H](O)[C@H](O)[C@@H]1O` [Compound 142], the pIC50 is 7.04.

For the compound `OC[C@H]1O[C@H](C#Cc2ccc(C#C[C@H]3O[C@H](CO)[C@@H](O)[C@H](O)[C@@H]3O)c(Cc3ccccc3)c2)[C@@H](O)[C@@H](O)[C@@H]1O` [Compound 158, (2R,3S,4R,5S,6R)-2-[2-[3-benzyl-4-[2-[(2R,3S,4R,5S,6R)-3,4,5-trihydroxy-6-(hydroxymethyl)tetrahydropyran-2-yl]ethynyl]phenyl]ethynyl]-6-(hydroxymethyl)tetrahydropyran-3,4,5-triol], the pIC50 is 7.96.

Consider `COC(=O)Cc1cc(-c2cccc([C@H]3O[C@H](CO)[C@@H](O)[C@H](O)[C@@H]3O)c2)ccc1-c1cccc([C@H]2O[C@H](CO)[C@@H](O)[C@H](O)[C@@H]2O)c1` [Compound 140, Methyl 2-[2,5-bis[3-[(2R,3S,4R,5S,6R)-3,4,5-trihydroxy-6-(hydroxymethyl)tetrahydropyran-2-yl]phenyl]phenyl]acetate], for which the pIC50 was 6.45.

On to `Cc1cc([C@H]2O[C@H](CO)[C@@H](O)[C@H](O)[C@@H]2O)ccc1C#C[C@H]1O[C@H](CO)[C@@H](O)[C@H](O)[C@@H]1O` [Compound 143], for which the pIC50 was 6.62.

As for `OC[C@H]1O[C@H](C#Cc2ccc3c(c2)C2(CCOCC2)c2cc(C#C[C@H]4O[C@H](CO)[C@@H](O)[C@H](O)[C@@H]4O)ccc2-3)[C@@H](O)[C@@H](O)[C@@H]1O` [Compound 162, (2R,2,3S,3,4R,4,5S,5,6R,6)-6,6((2tetrahydrospiro[fluorene-9,4pyran]-2,7-diyl)bis(ethyne-2,1-diyl))bis(2-(hydroxymethyl)tetrahydro-2H-pyran-3,4,5-triol)], the pIC50 is 9.96.

Consider `OC[C@H]1O[C@H](C#Cc2ccc3c(c2)C(O)(c2ccccc2)c2cc(C#C[C@H]4O[C@H](CO)[C@@H](O)[C@H](O)[C@@H]4O)ccc2-3)[C@@H](O)[C@@H](O)[C@@H]1O` (stereo partly drawn) [Compound 167, (2R,3S,4R,5S,6R)-2-(hydroxymethyl)-6-[2-[9-hydroxy-9-phenyl-7-[2-[(2R,3S,4R,5S,6R)-3,4,5-trihydroxy-6-(hydroxymethyl)tetrahydropyran-2-yl]ethynyl]fluoren-2-yl]ethynyl]tetrahydropyran-3,4,5-triol], for which the pIC50 was 7.80.

Regarding `OC[C@H]1O[C@H](C#Cc2ccc3c(c2)C(O)(C2CC2)c2cc(C#C[C@H]4O[C@H](CO)[C@@H](O)[C@H](O)[C@@H]4O)ccc2-3)[C@@H](O)[C@@H](O)[C@@H]1O` (stereo partly drawn) [Compound 114, (2R,3S,4R,5S,6R)-2-[2-[9-cyclopropyl-9-hydroxy-7-[2-[(2R,3S,4R,5S,6R)-3,4,5-trihydroxy-6-(hydroxymethyl)tetrahydropyran-2-yl]ethynyl]fluoren-2-yl]ethynyl]-6-(hydroxymethyl)tetrahydropyran-3,4,5-triol], the pIC50 is 8.92.

Take `CC1(C(=O)c2c(C#C[C@H]3O[C@H](CO)[C@@H](O)[C@H](O)[C@@H]3O)ccc3c2C2(CCNCC2)c2cc(C#C[C@H]4O[C@H](CO)[C@@H](O)[C@H](O)[C@@H]4O)ccc2-3)CC1` [Compound 225, [2,7-bis[2-[(2R,3S,4R,5S,6R)-3,4,5-trihydroxy-6-(hydroxymethyl)tetrahydropyran-2-yl]ethynyl]spiro[fluorene-9,4piperidine]-1yl]-(1-methylcyclopropyl)methanone]: the pIC50 was 8.92.

For `OC[C@H]1O[C@H](C#Cc2ccc(C#C[C@H]3O[C@H](CO)[C@@H](O)[C@H](O)[C@@H]3O)c3cnccc23)[C@@H](O)[C@@H](O)[C@@H]1O` [Compound 130, (2R,3S,4R,5S,6R)-2-(hydroxymethyl)-6-[2-[8-[-2-[(2R,3S,4R,5S,6R)-3,4,5-trihydroxy-6-(hydroxymethyl)tetrahydropyran-2-yl]ethynyl]-5-isoquinolyl]ethynyl]tetrahydropyran-3,4,5-triol], the pIC50 was 7.17.

With `CC(C)(c1ccc(C#C[C@H]2O[C@H](CO)[C@@H](O)[C@H](O)[C@@H]2O)cc1)c1ccc(C#C[C@H]2O[C@H](CO)[C@@H](O)[C@H](O)[C@@H]2O)cc1` [Compound 122, (2R,3S,4R,5S,6R)-2-(hydroxymethyl)-6-[2-[4-[1-methyl-1-[4-[2-[(2R,3S,4R,5S,6R)-3,4,5-trihydroxy-6-(hydroxymethyl)tetrahydropyran-2-yl]ethynyl]phenyl]ethyl]phenyl]ethynyl]tetrahydropyran-3,4,5-triol], the pIC50 is 7.54.

As for `Cc1cc(C#C[C@H]2O[C@H](CO)[C@@H](O)[C@H](O)[C@@H]2O)ccc1-c1ccc(C#C[C@H]2O[C@H](CO)[C@@H](O)[C@H](O)[C@@H]2O)cc1C` [Compound 124, (2R,3S,4R,5S,6R)-2-(hydroxymethyl)-6-[2-[3-methyl-4-[2-methyl-4-[2-[(2R,3S,4R,5S,6R)-3,4,5-trihydroxy-6-(hydroxymethyl)tetrahydropyran-2-yl]ethynyl]phenyl]phenyl]ethynyl]tetrahydropyran-3,4,5-triol], the pIC50 is 7.57.

For `OC[C@H]1O[C@H](C#Cc2ccc3c(c2)sc2cc(C#C[C@H]4O[C@H](CO)[C@@H](O)[C@H](O)[C@@H]4O)ccc23)[C@@H](O)[C@@H](O)[C@@H]1O` [Compound 109, (2R,3S,4R,5S,6R)-2-(hydroxymethyl)-6-[2-[7-[2-[(2R,3S,4R,5S,6R)-3,4,5-trihydroxy-6-(hydroxymethyl)tetrahydropyran-2-yl]ethynyl]dibenzothiophen-3-yl]ethynyl]tetrahydropyran-3,4,5-triol], the pIC50 is 7.70.

Consider `O=C1CCC2(CCO1)c1cc(C#C[C@H]3O[C@H](CO)[C@@H](O)[C@H](O)[C@@H]3O)ccc1-c1ccc(C#C[C@H]3O[C@H](CO)[C@@H](O)[C@H](O)[C@@H]3O)cc12` [Compound 218, 2,7-bis[2-[(2R,3S,4R,5S,6R)-3,4,5-trihydroxy-6-(hydroxymethyl)tetrahydropyran-2-yl]ethynyl]spiro[fluorene-9,5oxepane]-2one], for which the pIC50 was 10.05.

`CC(C)OC(=O)c1c(C#C[C@H]2O[C@H](CO)[C@@H](O)[C@H](O)[C@@H]2O)ccc2c1C1(CCNCC1)c1cc(C#C[C@H]3O[C@H](CO)[C@@H](O)[C@H](O)[C@@H]3O)ccc1-2` [Compound 208]: the pIC50 was 10.52.

On to `COc1cc([C@H]2O[C@H](CO)[C@@H](O)[C@H](O)[C@@H]2O)ccc1-c1ccc([C@H]2O[C@H](CO)[C@@H](O)[C@H](O)[C@@H]2O)c(C)c1` [Compound 147], for which the pIC50 is 6.87.
